Data on two molecules can be found in patent US20170119660A1, “PHARMACEUTICAL COMPOSITIONS FOR TRANSMUCOSAL DELIVERY” (Solubest Ltd, priority 2015, published 2017).

One data set concerns EpiOral™ buccal tissues. The experiment in a line: Franz diffusion cell permeability through human buccal tissue. As to conditions: 7.5 mg/ml in artificial saliva. It is filed as in vitro ADME. Here is the method: Permeability studies were performed as follows. The barrier membranes, EpiOral™ representing a highly differentiated, three-dimensional, cultured human buccal tissue equivalent were obtained from MatTek Corp (Ashland, Mass.). Samples were mounted in vertical Franz diffusion cells (PermeGear Inc., Bethlehem, Pa.). […] The fluid in each receptor compartment was maintained at 37±0.5° C. by using a thermostatic water pump (Freed Electric, Haifa, Israel) that circulated water through the jacket surrounding each main chamber. The biological membranes were initially left in the Franz cells for 1 h in order to facilitate their hydration before the experiment. After this period, a 500-μL aliquot of 7.5 mg/ml sumatriptan solution/dispersion in artificial saliva was deposited in each donor compartment. The donor compartment was covered with Parafilm® to prevent evaporation. Receptor solution samples of 300 μL were then collected at 3, 6, 9, 12, 20, 40 and 60 minutes and replaced with 300 μL phosphate buffer, placed on ice and stored at −20° C. until subjected to HPLC or LCMS analysis. Each permeation experiment was conducted as four replicate runs.
The permeability of unformulated sumatriptan base, of API (in the base form) released from the composition of the present invention (Example 3) and of the commercial formulation Imitrex® was tested using EpiOral™ buccal tissues as described in the Methods section. EpiOral™ buccal tissues consist of normal, human-derived epithelial cells that have been cultured to form multilayered, highly differentiated models of the human buccal phenotypes.

Data set [1] can be described thus: Dissolution test of powders and granules in simulated saliva. It is filed as physicochemical. Conditions: drug loading 10 mg/ml. Here is the method:
The liquid intermediates, containing the active compound(s) and the polymers, were prepared using different size glassware, magnetic plates, peristaltic pump and tubing. The spray-drying process was conducted using Mini Spray Dryer B-290 of Buchi Labortechnik AG. Tablet compression was performed with a Mini 8-D tablet press Dynamic Exim Co. Ltd. Granules preparation was performed with Dynamic Exim dry granulator. […] The quantification was performed using HPLC, Dionex. Appropriate amount of prepared granules or tablets as well as control powders or tablets were dissolved in 250 ml of artificial saliva, at 37° C., with rotation speed of 75 rpm. Simulated saliva solution was prepared according to SS5 solution recipe reported in Marques et al, 2011, Dissolution Technologies, 18, 15-28. The tablets disintegration test was performed in accordance with USP Disintegration Method <701>. […] The drug loading in the first set of experiments was 2.5 mg/ml.

The nature of data set [2]: Dissolution test of cannabidiol compositions in FaSSIF. It is filed as physicochemical. More on the design: unit not given here. Conditions: 200 ml FaSSIF, drug loading 20 mg. The procedure:
The liquid intermediates, containing the active compound(s) and the polymers, were prepared using different size glassware, magnetic plates, peristaltic pump and tubing. The spray-drying process was conducted using Mini Spray Dryer B-290 of Buchi Labortechnik AG. Tablet compression was performed with a Mini 8-D tablet press Dynamic Exim Co. Ltd. Granules preparation was performed with Dynamic Exim dry granulator. The dissolution test was performed in accordance with USP Dissolution Method <711> and FDA Dissolution Methods for Drug Products using the paddle apparatus Pharma Test model DT70 equipped with 1L and 250 ml vessels. The quantification was performed using HPLC, Dionex. Appropriate amount of prepared granules or tablets as well as control powders or tablets were dissolved in 250 ml of artificial saliva, at 37° C., with rotation speed of 75 rpm. Simulated saliva solution was prepared according to SS5 solution recipe reported in Marques et al, 2011, Dissolution Technologies, 18, 15-28. The tablets disintegration test was performed in accordance with USP Disintegration Method <701>.
Unformulated cannabidiol (CBD) and composition of the present invention (Example 13) were subjected to a dissolution test in 200 ml of Fasted State Simulating Intestinal Fluid (FaSSIF). The drug loading was 20 mg.

`CNS(=O)(=O)Cc1ccc2[nH]cc(CCN(C)C)c2c1` [Unformulated sumatriptan, Sumatriptan base]: the “STP Permeability” value in the data set on EpiOral™ buccal tissues (time point 0 min) amounted to 0.000 μg/cm^2; in the data set with EpiOral™ buccal tissues (time point 3 min), 0.330 μg/cm^2; with EpiOral™ buccal tissues (time point 6 min), 0.736 μg/cm^2; with EpiOral™ buccal tissues (time point 9 min), 0.964 μg/cm^2; in the data set with EpiOral™ buccal tissues (time point 12 min), 1.295 μg/cm^2; in the data set with EpiOral™ buccal tissues (time point 20 min) it was 2.671 μg/cm^2. Moreover, the “STP Permeability” value in the data set on EpiOral™ buccal tissues (time point 40 min) amounted to 6.938 μg/cm^2; in the data set with EpiOral™ buccal tissues (time point 60 min) it was 14.887 μg/cm^2. Moreover, the Drug released in data set [1] (5 min), in data set [1] (10 min) and in data set [1] (20 min) was 13% throughout.
Turning to `C=C(C)[C@@H]1CCC(C)=C[C@H]1c1c(O)cc(CCCCC)cc1O` [Unformulated CBD, Cannabidiol], the Dissolution profile in data set [2] (Time 0) came to 0; in data set [2] (Time 10) it was 1.7; in data set [2] (Time 20) it was 2.7; in data set [2] (Time 30) it was 3.8; in data set [2] (Time 45), 5.2; in data set [2] (Time 60) it was 6.3. The Dissolution profile in data set [2] (Time 90) is on record as 8.2.
